Consider 2 molecules from patent US11124483B2, “HER3 ligands and uses thereof” (THE REGENTS OF THE UNIVERSITY OF CALIFORNIA, priority 2015, dated 2021).

pIC50: −log10 of the molar value.

The target in one test is Src kinase (UniProt P00523). As to the kind of experiment: In vitro Src kinase assay (30-min). The note with it: percent activity vs. DMSO control. The test is classed as biochemical. The protocol: In vitro Kinase Assays. In vitro kinase assays with the HER2 kinase domain (SignalChem) were performed in triplicate as follows. To 9 μL of a 2.5× solution of kinase and substrate in reaction buffer was added 3 μL of a 5×DMSO or inhibitor dilution in 10% DMSO:water. The inhibitor/kinase solution was incubated at room temperature for 10 minutes. The kinase assay was initiated by the addition of 3 μL of a 5× solution of ATP, and ran for 15 minutes. The final reaction conditions were 50 mM Tris (pH7.4), 5 mM MnCl2, 0.01% Tween-20, 2 mM DTT, 100 μM E4Y substrate (SignalChem), 15 nM HER2, 2% DMSO, 50 μM ATP, and 1 μCi γ^32P-ATP. After 15 minutes, 3 μL of each reaction was pipetted onto phosphocellulose sheets (P81, Whatman) and allowed to dry. The sheets were then washed 4×5 min with a solution of 0.5% phosphoric acid, dried, and exposed to a phosphor screen overnight. Src Kinase assays were conducted as previously described^2. Phosphorimaging was conducted on a Typhoon 9500, image intensities were quantified in ImageQuant 5.2, normalized to the DMSO control and plotted in GraphPad Prism 6.

The target in another test is T1, HER3 TKD (Homo sapiens, UniProt P21860).
T1 construct: made in house
T1 sequence (P21860 709-966 limits assumed): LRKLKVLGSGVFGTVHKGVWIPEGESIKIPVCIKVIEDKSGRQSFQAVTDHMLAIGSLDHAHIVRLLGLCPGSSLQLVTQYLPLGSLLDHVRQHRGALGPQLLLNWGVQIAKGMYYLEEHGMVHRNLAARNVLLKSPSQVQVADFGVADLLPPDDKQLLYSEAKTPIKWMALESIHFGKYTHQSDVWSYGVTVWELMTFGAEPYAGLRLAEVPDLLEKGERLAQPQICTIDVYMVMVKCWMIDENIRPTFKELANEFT
The test can be described thus: HER3 TKD Thermofluor assay. Type of test: binding. Particulars: 20 μM inhibitor, 2 μM kinase, vs DMSO. The protocol:
HER3 Thermofluor Assay. Wt HER3 TKD was purified according to the previously published protocol^1. Thermofluor reactions were performed in duplicate and set up as follows. 1 μL of an inhibitor or DMSO dilution in 40% DMSO:water was added to 19 μL of the HER3 kinase domain in reaction buffer. The final reaction solution contained 100 mM MOPS, 200 mM NaCl, 5% glycerol, 5 mM MgCl2, 0.1 mM DTT, 5×SYPRO Orange, 2 μM kinase, 2% DMSO and 20 μM inhibitor in the wells of a 96-well, low profile, white, PCR plate (USA scientific). The solution was pipetted up and down to mix, sealed with TempAssure clear PCR flat caps (USA Scientific), centrifuged at 500×g for 30 s, and heated in a Stratagene Mx3005P RT-PCR machine from 25° C. to 95° C. in 0.5° C. increments every 30 s after an initial incubation at 25° C. for 10 min. Fluorescence was measured at the end of each 30 s period with an excitation wavelength of 492 nm and an emission wavelength of 610 nm. To obtain the melting temperature, fluorescent signals were normalized to the maximum fluorescent signal for that well. Values after the well had reached a maximum signal were discarded and the signals were fit to the Boltzmann equation in Graphpad Prism 6. ΔTm was calculated as the difference in melting temperature between the compound-treated kinase compared to the DMSO control.
A general note: DSF heats the sample and reads unfolding from a dye or from intrinsic fluorescence.

For `COc1cc2ncc(C#N)c(Nc3ccc(Oc4cccc(NC(=O)Nc5cccc(C(F)(F)F)c5)c4)cc3)c2cc1OC` [50A, 1-(3-(4-((3-cyano-6,7-dimethoxyquinolin-4-yl)amino)phenoxy)phenyl)-3-(3-(trifluoromethyl)phenyl)urea], at Src kinase, the negative logarithm of the IC50 (pIC50) (as a rule, the IC50 on a negative log10 scale, so that one unit is a factor of ten) is 8.48. The “binding to HER3 TKD (percent unfolded protein vs. temperature)” value at HER3 TKD is given as “particularly tight binding”. As to `COc1cc(Nc2c(C#N)cnc3cc(OCCCN4CCN(C)CC4)c(OC)cc23)c(Cl)cc1Cl` [bosutinib, reference compound], the pIC50 against Src kinase is 8.48.
